Results: ChEMBL document CHEMBL5620415, “Design, synthesis and anti-hepatic fibrosis activity of novel diphenyl vitamin D receptor agonists” (Eur J Med Chem, 2023)
Active and inactive are the calls of the source. No cut-off for these calls is given here.

Key:
Mus musculus [1] = experiment: Anti-fibrotic effect in CCl4-induced hepatic fibrosis C57BL/6 mouse model assessed as inhibition of collagen deposition at 500 ug/kg, po five times a week for 2 weeks by Hematoxylin-Eosin (H&E) staining based assay; assay type: functional, organism-based; conditions: dose 500.0 µg/kg
Mus musculus [2] = experiment: Anti-fibrotic effect in CCl4-induced hepatic fibrosis C57BL/6 mouse model assessed as inhibition of serum ALT level at 500 ug/kg, po five times a week for 2 weeks; assay type: functional, organism-based; conditions: dose 500.0 µg/kg
Mus musculus [3] = experiment: Anti-fibrotic effect in bile duct ligation (BDL) surgery-induced hepatic fibrosis C57BL/6 mouse model assessed as decrease in inflammatory cell infiltration at 500 ug/kg, po five times a week for 2 weeks by Hematoxylin-Eosin (H&E) staining based assay; assay type: functional, organism-based; conditions: dose 500.0 µg/kg
Mus musculus [4] = experiment: Anti-fibrotic effect in CCl4-induced hepatic fibrosis C57BL/6 mouse model assessed as inhibition of proliferation of fibrous tissue at 500 ug/kg, po five times a week for 2 weeks by Masson's Trichrome […] staining based assay; assay type: functional, organism-based; conditions: dose 500.0 µg/kg
Mus musculus [5] = experiment: Anti-fibrotic effect in CCl4-induced hepatic fibrosis C57BL/6 mouse model assessed as reduction the lesions at 500 ug/kg, po five times a week for 2 weeks by Masson's Trichrome staining based assay; assay type: functional, organism-based; conditions: dose 500.0 µg/kg
Mus musculus [6] = experiment: Anti-fibrotic effect in bile duct ligation (BDL) surgery-induced hepatic fibrosis C57BL/6 mouse model assessed as inhibition of Ctgf expression in liver at 500 ug/kg, po five times a week for 2 weeks by RT-qPCR analysis; assay type: functional, organism-based; conditions: dose 500.0 µg/kg
Mus musculus [7] = experiment: Anti-fibrotic effect in CCl4-induced hepatic fibrosis C57BL/6 mouse model assessed as reduction the lesions at 500 ug/kg, po five times a week for 2 weeks by Hematoxylin-Eosin (H&E) staining based assay; assay type: functional, organism-based; conditions: dose 500.0 µg/kg
Mus musculus [8] = experiment: Anti-fibrotic effect in bile duct ligation (BDL) surgery-induced hepatic fibrosis C57BL/6 mouse model assessed as inhibition of fibronectin (Fn) expression in liver at 500 ug/kg, po five times a week for 2 weeks by RT-qPCR analysis; assay type: functional, organism-based; conditions: dose 500.0 µg/kg
Mus musculus [9] = experiment: Anti-fibrotic effect in CCl4-induced hepatic fibrosis C57BL/6 mouse model assessed as decrease in inflammatory cell infiltration at 500 ug/kg, po five times a week for 2 weeks by Masson's Trichrome staining based assay; assay type: functional, organism-based; conditions: dose 500.0 µg/kg
[10] = target: T1, Vitamin D3 receptor (Homo sapiens) (UniProt P11473); experiment: Binding affinity to human full-length Vitamin D receptor assessed as relative binding affinity at 1 uM incubated for 2 hrs by fluorescence polarization based competitive binding assay relative to calcipotriol; conditions: filed as agonist
T1 sequence (whole entry): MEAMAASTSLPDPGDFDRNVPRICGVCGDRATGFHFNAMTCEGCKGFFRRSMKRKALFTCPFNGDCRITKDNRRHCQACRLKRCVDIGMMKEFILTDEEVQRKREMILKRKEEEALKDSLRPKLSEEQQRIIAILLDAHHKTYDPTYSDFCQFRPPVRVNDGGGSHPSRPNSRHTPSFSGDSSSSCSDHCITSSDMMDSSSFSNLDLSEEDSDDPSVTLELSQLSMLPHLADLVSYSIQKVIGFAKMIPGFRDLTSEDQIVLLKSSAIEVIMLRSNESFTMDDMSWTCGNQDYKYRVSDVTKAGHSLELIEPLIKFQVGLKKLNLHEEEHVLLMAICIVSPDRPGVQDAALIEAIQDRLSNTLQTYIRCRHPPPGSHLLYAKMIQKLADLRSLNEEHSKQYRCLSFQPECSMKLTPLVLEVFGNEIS

[11] = Cytotoxicity against human LX-2 cells by CCK-8 assay; assay type: toxicity, cell-based
Mus musculus [12] = experiment: Anti-fibrotic effect in CCl4-induced hepatic fibrosis C57BL/6 mouse model assessed as inhibition of serum total bile acid (TBA) level at 500 ug/kg, po five times a week for 2 weeks; assay type: functional, organism-based; conditions: dose 500.0 µg/kg
Mus musculus [13] = experiment: Anti-fibrotic effect in bile duct ligation (BDL) surgery-induced hepatic fibrosis C57BL/6 mouse model assessed as inhibition of serum AST level at 500 ug/kg, po five times a week for 2 weeks; assay type: functional, organism-based; conditions: dose 500.0 µg/kg
Mus musculus [14] = experiment: Anti-fibrotic effect in bile duct ligation (BDL) surgery-induced hepatic fibrosis C57BL/6 mouse model assessed as inhibition of serum total bile acid (TBA) level at 500 ug/kg, po five times a week for 2 weeks; assay type: functional, organism-based; conditions: dose 500.0 µg/kg
Mus musculus [15] = experiment: Anti-fibrotic effect in bile duct ligation (BDL) surgery-induced hepatic fibrosis C57BL/6 mouse model assessed as inhibition of collagen deposition in liver at 500 ug/kg, po five times a week for 2 weeks by Hematoxylin-Eosin (H&E) staining based assay; assay type: functional, organism-based; conditions: dose 500.0 µg/kg
[16] = target: T1, Vitamin D3 receptor (Homo sapiens); experiment: Agonist activity at Vitamin D receptor in HEK293 cells assessed as receptor transactivation incubated for 48 hrs by dual-luciferase reporter assay; assay type: cell-based; conditions: filed as agonist, dose 0.01-1 µM
Mus musculus [17] = experiment: Anti-fibrotic effect in CCl4-induced hepatic fibrosis C57BL/6 mouse model assessed as reduction in hepatic fibrosis lesions at 500 ug/kg, po five times a week for 2 weeks by Hematoxylin-Eosin (H&E) staining based assay; assay type: functional, organism-based; conditions: dose 500.0 µg/kg
Mus musculus [18] = experiment: Anti-fibrotic effect in bile duct ligation (BDL) surgery-induced hepatic fibrosis C57BL/6 mouse model assessed as reduction the lesions at 500 ug/kg, po five times a week for 2 weeks by Hematoxylin-Eosin (H&E) staining based assay; assay type: functional, organism-based; conditions: dose 500.0 µg/kg
[19] = Toxicity in CCl4-induced hepatic fibrosis C57BL/6 mouse model assessed as serum hypercalcemia at 500 ug/kg, po five times a week for 2 weeks by calcium assay kit; assay type: organism-based; conditions: in vivo, 0.5 mg/kg, 336 h, dose 500 µg/kg
Mus musculus [20] = experiment: Anti-fibrotic effect in improving CCl4-induced hepatic fibrosis C57BL/6 mouse model assessed as uniform liver parenchyma at 500 ug/kg, po five times a week for 2 weeks by qualitative ultrasound imaging analysis; assay type: functional, organism-based; conditions: dose 500.0 µg/kg
Mus musculus [21] = experiment: Anti-fibrotic effect in bile duct ligation (BDL) surgery-induced hepatic fibrosis C57BL/6 mouse model assessed as reduction the lesions at 500 ug/kg, po five times a week for 2 weeks by Masson's Trichrome staining based assay; assay type: functional, organism-based; conditions: dose 500.0 µg/kg
Mus musculus [22] = experiment: Anti-fibrotic effect in CCl4-induced hepatic fibrosis C57BL/6 mouse model assessed as inhibition of collagen deposition at 500 ug/kg, po five times a week for 2 weeks by Masson's Trichrome […] staining based assay; assay type: functional, organism-based; conditions: dose 500.0 µg/kg
[23] = Toxicity in bile duct ligation (BDL) surgery-induced hepatic fibrosis C57BL/6 mouse model assessed as serum hypercalcemia at 500 ug/kg, po five times a week for 2 weeks by calcium assay kit; assay type: organism-based; conditions: in vivo, 0.5 mg/kg, 336 h, dose 500 µg/kg
Mus musculus [24] = experiment: Anti-fibrotic effect in bile duct ligation (BDL) surgery-induced hepatic fibrosis C57BL/6 mouse model assessed as inhibition of Timp-1 expression in liver at 500 ug/kg, po five times a week for 2 weeks by RT-qPCR analysis; assay type: functional, organism-based; conditions: dose 500.0 µg/kg
Mus musculus [25] = experiment: Anti-fibrotic effect in CCl4-induced hepatic fibrosis C57BL/6 mouse model assessed as inhibition of proliferation of fibrous tissue at 500 ug/kg, po five times a week for 2 weeks by Hematoxylin-Eosin (H&E) staining based assay; assay type: functional, organism-based; conditions: dose 500.0 µg/kg
Mus musculus [26] = experiment: Anti-fibrotic effect in improving CCl4-induced hepatic fibrosis C57BL/6 mouse model assessed as decrease in liver to kidney brightness ratio at 500 ug/kg, po five times a week for 2 weeks by qualitative ultrasound imaging analysis; assay type: functional, organism-based; conditions: dose 500.0 µg/kg
Mus musculus [27] = experiment: Anti-fibrotic effect in bile duct ligation (BDL) surgery-induced hepatic fibrosis C57BL/6 mouse model assessed as decrease in inflammatory cell infiltration at 500 ug/kg, po five times a week for 2 weeks by Masson's Trichrome staining based assay; assay type: functional, organism-based; conditions: dose 500.0 µg/kg

With `OCc1ccc(/C=C/c2ccc(OCCCC(F)(F)F)cc2)cc1CO` the Activity (Mus musculus [1]) was “Active”, the Activity (Mus musculus [2]) was “Active” and the Activity (Mus musculus [3]) was “Active”. The Activity (Mus musculus [4]) was “Active”, the Activity (Mus musculus [5]) was “Active” and the Activity (Mus musculus [6]) was “Active”. The Activity (Mus musculus [7]) was “Active”, the Activity (Mus musculus [8]) was “Active” and the Activity (Mus musculus [9]) was “Active”. The RBA [10] was 51.4%, the IC50 [11] was over 30 µM and the Activity (Mus musculus [12]) was “Active”. The Activity (Mus musculus [13]) was “Active”, the Activity (Mus musculus [14]) was “Active” and the Activity (Mus musculus [15]) was “Active”. For the same compound, the Activity [16] was “Dose-Dependent Effect”, the Activity (Mus musculus [17]) was “Active” and the Activity (Mus musculus [18]) was “Active”. The Activity [19] was “Non-Toxic”, the Activity (Mus musculus [20]) was “Active” and the Activity (Mus musculus [21]) was “Active”. For the same compound, the Activity (Mus musculus [22]) was “Active”, the Activity [23] was “Non-Toxic” and the Activity (Mus musculus [24]) was “Active”. The Activity (Mus musculus [25]) was “Active”, the Activity (Mus musculus [26]) was “Active” and the Activity (Mus musculus [27]) was “Active”.
